Data as given in patent US7091033B2, “Array of toxicologically relevant canine genes and uses thereof” (Phase-1 Molecular Toxicology, Inc., priority 2000, dated 2006).
Read-outs that look alike come from different tables or passages of the source.

System: canine liver gene expression
Assay: Canine array gene expression profile of liver from dog dosed with erythromycin estolate
Type: in vivo
Conditions: Canis lupus familiaris, 240 h, 10 days
Protocol: For liver or kidney, about 0.15-0.20 g of tissue was weighed and placed in a 15 ml conical tube. All tissue were kept on dry ice when other samples were being weighed.
About 3.8 ml of RLT buffer was added to the tube containing the sample. The RLT buffer® from Qiagen can be prepared beforehand by adding 10 μl betamercaptoethanol to each 1.0 ml of lysis buffer needed. The tissue was homogenized using the rotor-stator homogenizer for 45 seconds. A IKA Ultra Turrax T25 homogenizer set at speed 4 with the S25N-10G dispersing element can be used. Alternatively, a Virtishear Cyclone 750W rotor/stator homogenizer (Virtis item #278077) can be used with the 7 mm microfine sawtooth shaft and generator (195 mm long with a processing range of 0.25 ml to 20 ml, item #372718). After homogenization, samples were stored on ice until all samples were homogenized. To clean the homogenizing tip between samples, the tip was first run for a few seconds in 95% ethanol and then rinsed by squirting with fresh 95% ethanol. This process was repeated with nanopure water.
The tissue lysate was centrifuged at room temperature for 10 minutes at 3700-3800 rpm in a Beckman GS-6 (or equivalent) centrifuge to remove nuclei thus reducing DNA contamination.
The supernatant of the lysate was transferred to a clean 15 ml conical tubes containing an equal volume of 70% EtOH in DEPC treated H2O, being careful not to include any of the pellet or fatty layer and mixed. About 3.8 ml of sample was added to the RNeasy spin column placed in a 15 ml centrifuge tube and centrifuged at 3000×g (3690-3710 rpm, Beckman GS-6) for 5 min. The flow-through was discarded. The remaining sample was added to the appropriate column and spun at 3000×g for 5 minutes and the flow-through was discarded.
About 4.0 ml of Buffer RW1 (Qiagen®) was added to the column and spun as before then about 2.5 ml of buffer RPE (Qiagen®) was added to column and spun at 3000×g (3690-3710 rpm, Beckman GS-6) for 2 minutes. In this example, RPE buffer was supplied as a concentrate so 4 volumes of 95% EtOH was added before use. For the midi kit, about 220 ml of 95% EtOH would be added to 55 ml of RPE. Another 2.5 ml of buffer RPE was added and spun for 5 minutes to also dry out column. The column, including the tip, should be dry for the next elution step.
For elution, the column that has the RNA bound to a clean 15 ml tube was transferred and 200 μl of RNase-free water was added to the column, allowed to sit for 1 minute, and spun for 3 minutes at 3000×g (3690-3710 rpm, Beckman GS6). This step was repeated into the same tube but with 200 μl RNase-free water.
Liver and kidney organs were isolated from a dog which was dosed with erythromycin esolate at 100 mg/kg/day for 2 or 10 days. The dog was euthanized 16 hours after the last dosage and the organs were harvested according to standard sterile procedure. RNA was isolated from the kidney and liver as detailed in Example 1. cDNA was made from the RNA and used as probes as detailed in the Examples above.

CCC(=O)O[C@H]1[C@H](O[C@@H]2[C@@H](C)[C@H](O[C@H]3C[C@@](C)(OC)[C@@H](O)[C@H](C)O3)[C@@H](C)C(=O)O[C@H](CC)[C@@](C)(O)[C@H](O)[C@@H](C)C(=O)[C@H](C)C[C@@]2(C)O)O[C@H](C)C[C@@H]1N(C)C [erythromycin estolate]
fold induction at 100 mg/kg (read-out: Alkaline phosphatase fold induction): 1.5 | fold induction at 100 mg/kg (read-out: Angiopoietin-related protein 3 (ANGPTL3) fold induction): 1.5 | fold induction at 100 mg/kg (read-out: BR-cadherin fold induction): 1.2 | fold induction at 100 mg/kg (read-out: BRCA1 fold induction): 1.5 | fold induction at 100 mg/kg (read-out: Beta-glucuronidase fold induction): 1.5 | fold induction at 100 mg/kg (read-out: Canis familiaris mitochondrion, complete genome fold induction): 1.1 | fold induction at 100 mg/kg (read-out: Catalase fold induction): 1.4 | fold induction at 100 mg/kg (read-out: Caveolin-2 fold induction): 1.2 | fold induction at 100 mg/kg (read-out: Cubilin fold induction): 1.1 | fold induction at 100 mg/kg (read-out: Cytochrome c oxidase subunit II fold induction): 1.6 | fold induction at 100 mg/kg (read-out: Cytochrome c oxidase subunit VIIaL fold induction): 1 | fold induction at 100 mg/kg (read-out: c-erb B-2 fold induction): 1.3
